IC50 and IC90 data for one compound are collected here from patent US20150056166A1, “FLAVONE DERIVATIVES AND THEIR USE” (Twincore GmbH, priority 2012, published 2015).

One assay has as its system J8 (GT2b). Description: Luciferase infection assay, chimeric reporter virus J8/2b/R2a in Huh7-Lunet/CD81 cells. The assay is classed as cell-based, HCV. The settings on record: Hepatitis C virus, Huh-7, 72 h.
The subject of the next assay is ED43 (GT4a). Description: Luciferase infection assay, chimeric reporter virus ED43/4a/R2a in Huh7-Lunet/CD81 cells. The class given is cell-based, HCV. Particulars: Hepatitis C virus, Huh-7, 72 h.

pIC50: −log10 of the molar value.

For the compound `COc1ccc(-c2cc(=O)c3c(O)c(O)c(OC)cc3o2)cc1` [BJ486K, 5,6-Dihydroxy-7-methoxy-2-(4-methoxy-phenyl)-chromen-4-one], in the assay with J8 (GT2b), the pIC50 was 5.38 and it took 8.42 µM to reach the 90% level (IC90). In addition, in the assay on ED43 (GT4a), the negative-log IC50 (pIC50) is 6.13 and the 90% effect level (IC90) was put at 1780 nM.

In general, pIC50 refers to the IC50 on a negative log10 scale, so that one unit is a factor of ten. High values mean a low IC50, low ones a high IC50. As usually defined, the IC90 is the concentration at which the effect reaches the 90% level. A higher IC90 goes with weaker potency.
